According to PubChem BioAssay AID602191 (Broad Institute, 2012):
Active and inactive are the calls of the source.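 How the source made its calls: active means fitted curve reaches 40% activation at a concentration no higher than the top valid tested dose; inconclusive means flat fit between 30% and 70% activation, or poor fit; inactive means uptake decrease, flat fit within 30% of zero, the rest.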

Each compound was assayed against Scavenger receptor class B member 1 (Mus musculus) (UniProt Q61009) (assay: enhancers of DiI-HDL lipid transfer via SR-BI – cell-based, ldlA[mSR-BI] CHO, DiI fluorescence, cherry-pick, dose response (AID 602191;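 further: cell fluorescence from internalized DiI-labeled HDL after washing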;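 on AC40: potency of activators raising HDL uptake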;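 on Activation (HDL uptake increase): 0% = median of DMSO wells and 100% = twice the DMSO signal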)). Settings: ldlA[mSR-BI] CHO cells, 3 h, at 11 µM (top of the series).
Chain of Scavenger receptor class B member 1 (Mus musculus) (Q61009 whole entry, looked up): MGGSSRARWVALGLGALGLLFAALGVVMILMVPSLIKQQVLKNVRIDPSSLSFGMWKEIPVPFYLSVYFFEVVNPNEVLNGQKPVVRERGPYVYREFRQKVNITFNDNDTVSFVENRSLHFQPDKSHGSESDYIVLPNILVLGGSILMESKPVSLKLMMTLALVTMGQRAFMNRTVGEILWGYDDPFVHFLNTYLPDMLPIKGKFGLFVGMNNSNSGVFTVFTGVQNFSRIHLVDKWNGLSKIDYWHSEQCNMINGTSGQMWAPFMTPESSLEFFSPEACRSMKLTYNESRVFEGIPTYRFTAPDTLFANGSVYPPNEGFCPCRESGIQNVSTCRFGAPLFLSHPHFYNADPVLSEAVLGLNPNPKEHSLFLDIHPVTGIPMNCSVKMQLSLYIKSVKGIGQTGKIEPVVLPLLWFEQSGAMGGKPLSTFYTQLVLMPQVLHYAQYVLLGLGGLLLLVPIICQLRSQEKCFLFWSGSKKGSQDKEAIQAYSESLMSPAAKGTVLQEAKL

Activation (HDL uptake increase), inactive:
CC(C)C[C@@H](CN1CCCC1CN1C(=S)NC[C@@H]1Cc1ccc(O)cc1)N1C[C@H](Cc2ccc(O)cc2)N(CC2CCCCC2)C1=S (stereo partly drawn) -10.2%

Same assay, conditions: ldlA[mSR-BI] CHO cells, 3 h, at 35 µM (top of the series)

Activation (HDL uptake increase), inactive:
CC(C)C[C@H](NC(=O)c1nc[nH]c1C(=O)NC1CCN(C(=O)OC(C)(C)C)CC1)C(=O)OC(C)(C)C -3.21%
C[C@@H]1CN([C@@H](C)CO)C(=O)Cc2cc(NC(=O)Nc3ccc(F)cc3)ccc2O[C@@H]1CN(C)Cc1ccc(Cl)c(Cl)c1 94.8%
CCOC(=O)C1CCCN(C(=S)Nc2cccc(Cl)c2C)C1 (stereo not drawn) -3.98%
CCN1C(=O)C2C(c3cccc(F)c3)NC(CC)(C(=O)OC)C2C1=O (stereo not drawn) -4.79%
CCOC(=O)C1CCN(S(=O)(=O)c2cc(C(=O)N3CCCCC3)ccc2OC)CC1 -3.08%
C=CCn1c(SCC(=O)N(CC)C2CCS(=O)(=O)C2)nnc1-c1ccccc1 (stereo not drawn) -7.41%
Cc1ccc(CN2CCNC(=O)C2CC(=O)N2CCN(c3ncccn3)CC2)o1 (stereo not drawn) -8.96%
CCN(CC(=O)Nc1c(F)cccc1F)C(=O)CCCc1nc2ccccc2c(=O)[nH]1 -5.94%
O=C(OCc1ccccc1)c1cccc(-c2nnc(-c3ccccc3)o2)c1 -15.9%
CCC(C)[C@@H](C(=O)NCC1CCC(C(=O)O)CC1)n1nnc2ccccc2c1=O (stereo partly drawn) -5.54%
COc1ccccc1N(CC(=O)Nc1cc(C)on1)S(=O)(=O)c1cccc(C(F)(F)F)c1 1.11%
COc1ccccc1N1CCN(C2CCCN(C(=O)c3ccccn3)C2)CC1 (stereo not drawn) -4.31%
O=C(COC(=O)CNC(=O)c1ccc(Cl)cc1Cl)NCc1ccco1 -5.97%
CCc1nn(CC(=O)N2CCN(CC)CC2)c(=O)c2cccn12 -9.62%
CC1(C)NC(=O)N(CC(=O)N2CCN(S(=O)(=O)c3ccccc3C(F)(F)F)CC2)C1=O -6.43%
NC(=O)C1CCN(C(=O)C2CC(=O)N(c3ccc4c(c3)OCCO4)C2)CC1 (stereo not drawn) -4.66%
O=C(COC(=O)C1CCCCC1)Nc1cccc(Br)c1 -5.26%
CC(=O)c1cccc(S(=O)(=O)NCCCN2CCOCC2)c1 -4.98%
O=C(COC(=O)C1CCN(/C=C/C(=O)C(F)(F)F)CC1)Nc1cccc(F)c1 -7.38%
CSc1ccc(S(=O)(=O)NCC(=O)OCC(=O)N(C)Cc2ccccc2)cc1[N+](=O)[O-] 4.31%
CN(C)CCN(C(=O)CN1C(=O)c2ccccc2C1=O)c1nc2cc3c(cc2s1)OCCO3 -2.04%
O=C1CCCC/C=C\C[C@H](CC(=O)N(CCO)Cc2ccccc2)C(=O)N2CCC[C@@H]2CO1 -5.56%
COCCNC(=O)C1(C)C=CC2(CCCCC2)N1C(=O)c1ccccc1 (stereo not drawn) 3.23%
CCC(C)(C)NC(=O)C(c1cccnc1)N(CCOC)C(=O)Cn1nnc2ccccc21 (stereo not drawn) -4.87%
CN(C(=O)COC(=O)CN1C(=O)c2cccc([N+](=O)[O-])c2C1=O)c1ccccc1 -5.58%
Cc1ccc(C(=O)NCCc2cccs2)cc1 1.64%
CC(=O)NC(Cc1ccccc1)C(=O)OCC(=O)c1ccccc1 (stereo not drawn) -12%
CCOC(=O)C1=C(COC(=O)[C@H](C)NS(=O)(=O)c2ccc(NC(C)=O)cc2)NC(=O)NC1C (stereo partly drawn) -9.73%
CC(=O)N1CCN(C(=O)c2ccc(-n3c(C)ccc3C)cc2)CC1 -10.8%
CC(C)CN(C(=O)CN1C(=O)C2CCCCC2C1=O)c1c(N)n(Cc2ccccc2)c(=O)[nH]c1=O (stereo not drawn) -7.25%
CC(C)(C)OC(=O)C[C@H]1C/C=C\C[C@H](CC(=O)NCCO)C(=O)NCCOC1=O -2.75%
CCN1CCN(C(=O)/C(=C/c2ccco2)NC(=O)c2ccccc2)CC1 -3.29%
Cc1ccc2nc(N(CCCN(C)C)C(=O)c3ccc(S(=O)(=O)N4CCOCC4)cc3)sc2c1 -2.75%
NCCCC[C@H]1CNC(=O)C(=O)N1CCc1cc(C(F)(F)F)cc(C(F)(F)F)c1 6.34%
COc1ccccc1N1C(=O)CCC1(C#N)c1ccc(Br)cc1 (stereo not drawn) 9.71%
CN1OC[C@@H]2CN[C@H](c3cccc(-c4cc(Cl)cc(Cl)c4)c3)C[C@@H]21 5.62%
CCOc1cc(N2CCOCC2)c(OCC)cc1NC(=O)CSc1cccc[n+]1[O-] -6.79%
O=C1NC2NC(=O)N(C(Cc3ccccc3)C(=O)O)C2N1 (stereo not drawn) -4.43%
Cc1ccc(C(c2nnnn2C2CCCCC2)N2CCN3CCCC3C2)cc1 (stereo not drawn) -9.01%
O=C1CN(C(=O)COC(=O)C2=COCCO2)c2ccccc2N1 7.62%
NCCc1nnc(SCc2ccccc2)o1 5.16%
Cc1ccc(CNC(=O)CCNC(=O)c2ccc(Br)o2)cc1 -10.8%
O=C(NC(=S)N(Cc1ccccc1)Cc1ccccc1)c1ccccc1F -11.7%
Cc1ccc(NC(=O)CSCC(N)=O)cc1C -9.19%
O=C(C1=C[C@@H](c2ccc(Br)cc2)C[C@@H](OCc2ccc(CO)cc2)O1)N1CCN(Cc2ccccc2)CC1 0.848%
CC(C)C[C@@H](CN1CCCC1CN1C(=S)NC[C@@H]1Cc1ccc(O)cc1)N1C[C@H](Cc2ccc(O)cc2)N(CC2CCCCCC2)C1=S (stereo partly drawn) 1.49%
Clc1ccc2nc(CN3CCCCCC3)cn2c1 0.923%
CC(C)CCNC(=O)c1onc(CSc2ccncc2)c1C(=O)NCCC(C)C 3.64%
COc1ccc2c(c1)C(C)(CCN)C(=O)N2C (stereo not drawn) -0.472%
O=C(CCNC(=O)c1ccccc1Cl)NCC(c1ccc(F)cc1)N1CCOCC1 (stereo not drawn) -2.65%
Cc1c(CC(=O)O)c(=O)oc2cc(OCc3ccc(F)cc3Cl)ccc12 10.2%
COc1ccc(OC)c(S(=O)(=O)N2CCN(C(=O)CCc3ccccc3)CC2)c1 -1.31%
Cc1ccc(C2(CC(=O)N3CCCC3)CCOC(C(C)C)C2)cc1 (stereo not drawn) -13.4%
O=C(OCCc1cc2ccccc2c(=O)o1)c1ccco1 -0.117%
Cc1noc(/C=C/N(C)C)c1S(=O)(=O)N1CCCC(C(=O)NCc2ccco2)C1 (stereo not drawn) -1.39%
COCCN(Cc1nnc(-c2cccs2)o1)C(=O)c1cccc(S(=O)(=O)N2CCOCC2)c1 -7.49%
CC(C)Cc1cc(C(=O)NCc2ccco2)no1 -10.4%
Cc1ccc(CS(=O)Cc2ccc(C(=O)NCc3ccccc3)o2)cc1 (stereo not drawn) 4.99%
CC(=O)Nc1ccc(SCC(=O)NC(=O)c2ccc(S(=O)(=O)N(C)C)cc2)cc1 -3.69%
CC(C)(C)n1nc2c(c1NC(=O)Cc1ccc(F)cc1)CS(=O)(=O)C2 9.82%
Cc1ccc(NC(=O)CSc2nc3nc(C)c(Br)cc3[nH]2)cc1F -7.04%
CCCCn1c(CN2CCN(C(=O)c3ccco3)CC2)nc2c1c(=O)n(C)c(=O)n2C 2.07%
CC(C)C(NC(=O)c1ccccc1F)C(=O)NCc1ccccc1 (stereo not drawn) 4.3%
CC(C)(C)OC(=O)NCCCC[C@H](NC(=O)c1nc[nH]c1C(=O)NC(c1ccccc1)c1ccccc1)C(=O)OC(C)(C)C -9.52%
CSCCC(NC(=O)c1ccco1)C(=O)NC1CCC(C)CC1 (stereo not drawn) -3.23%
O=C1C2C3C=CC(C4CC34)C2C(=O)N1c1nccs1 (stereo not drawn) -0.437%
CC1CCCC(NC(=O)CSc2nncs2)C1C (stereo not drawn) -4.42%
NCCCC[C@H]1CNC(=O)C(=O)N1CCc1cccc2ccccc12 -5.05%
CN1CCN(C(=O)c2ccccc2NC(=O)c2ccccc2Br)CC1 -7.48%

Same assay, conditions: ldlA[mSR-BI] CHO cells, DiI-HDL uptake fluorescence, 3 h

AC40, inactive:
CC(C)(C)NC(=O)C[C@H]1C[C@H](C(=O)N2CCOCC2)[C@@]2(CCC3CCCC3)c3[nH]c4ccc(Cl)cc4c3CCN2C1=O > 35 µM
NCCCC[C@H]1CNC(=O)C(=O)N1CCc1cccc(F)c1 > 35 µM
O=C(C[C@H]1C[C@H](C(=O)N2CCCCC2)[C@@]2(CCc3ccccc3)c3[nH]c4ccc(Cl)cc4c3CCN2C1=O)NCCc1ccccn1 > 35 µM
